# Results published in patent US12503475B2 (Centessa Pharmaceuticals (UK) Limited, priority 2020, dated 2025).
# Target: T1, human orexin type 2 receptor (hOX2R) (Homo sapiens, UniProt O43614)
# T1 construct: expressed in transfected cells
# T1 sequence (O43614 1-444): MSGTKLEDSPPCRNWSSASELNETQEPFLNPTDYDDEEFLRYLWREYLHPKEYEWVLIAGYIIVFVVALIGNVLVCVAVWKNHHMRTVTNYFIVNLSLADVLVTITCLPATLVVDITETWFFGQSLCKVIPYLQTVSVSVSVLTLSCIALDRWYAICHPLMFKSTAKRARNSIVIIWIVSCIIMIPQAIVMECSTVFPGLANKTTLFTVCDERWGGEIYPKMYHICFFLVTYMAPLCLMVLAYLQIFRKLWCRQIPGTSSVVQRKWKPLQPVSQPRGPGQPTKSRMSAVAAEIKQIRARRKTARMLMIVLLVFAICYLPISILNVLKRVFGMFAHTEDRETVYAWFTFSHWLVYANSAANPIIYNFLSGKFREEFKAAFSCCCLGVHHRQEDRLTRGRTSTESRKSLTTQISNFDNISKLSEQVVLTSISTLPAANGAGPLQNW
# Experiment: Measurement of orexin type 2 receptor agonist activity (FLIPR calcium fluorescence)
# Type: cell-based
# Details: CHO cells expressing hOX2R, FLIPR calcium fluorescence; for EC50: read-out: hOx2 pEC50 (converted); for Emax: CHO, read-out: hOx2 Emax (%)
# Method in brief: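 Agonism was read as fluorescence in cells stably expressing human OX2R. E. is the response at 10 μM relative to orexin A as full agonist (100%).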
EC50,Emax,hOx2 Emax (%),Compound
10 to 100 nM,70 to 80%,–,"[2H]C([2H])([2H])C([2H])([2H])NC(=O)N1CC2(CC2)[C@H](NS(C)(=O)=O)[C@@H]1Cc1cccc(-c2ccccc2)c1OC [Compound 363, (6S,7S)-N-(ethyl-d5)-6-((2-methoxy-[1,1′-biphenyl]-3-yl)methyl)-7-(methylsulfonamido)-5-azaspiro[2.4]heptane-5-carboxamide]"
1 to 10 nM,90 to 100%,–,"O=C([C@H]1CCO1)N1CC2(CC2)[C@H](NS(=O)(=O)C2CC2)[C@@H]1Cc1cccc(-c2ccccc2)c1 [Compound 42, N-((6S,7S)-6-([1,1′-biphenyl]-3-ylmethyl)-5-((R)-oxetane-2-carbonyl)-5-azaspiro[2.4]heptan-7-yl)cyclopropanesulfonamide]"
1 to 10 nM,90 to 100%,–,"O=C([C@H](O)CF)N1CC2(CC2)[C@H](NS(=O)(=O)CF)[C@@H]1Cc1cc(F)cc(-c2cc(F)cc(F)c2)c1F [Compound 373, 1-fluoro-N-((6S,7S)-5-((S)-3-fluoro-2-hydroxypropanoyl)-6-((2,3′,5,5′-tetrafluoro-[1,1′-biphenyl]-3-yl)methyl)-5-azaspiro[2.4]heptan-7-yl)methanesulfonamide]"
1 to 10 nM,–,A (Emax ranging between 90 and 100),"CS(=O)(=O)N[C@@H]1[C@H](Cc2cccc(-c3ccccc3)c2)N(C(=O)[C@H](O)C(F)(F)F)CC12CC2 [Compound 43, N-((6S,7S)-6-([1,1′-biphenyl]-3-ylmethyl)-5-((S)-3,3,3-trifluoro-2-hydroxypropanoyl)-5-azaspiro[2.4]heptan-7-yl)methanesulfonamide]"
1 to 10 nM,90 to 100%,–,"O=C([C@H]1CCO1)N1CC2(CC2)[C@H](NS(=O)(=O)C(F)F)[C@@H]1Cc1cccc(-c2ccccc2F)c1F [Compound 163, N-((6S,7S)-6-((2,2′-difluoro-[1,1′-biphenyl]-3-yl)methyl)-5-((R)-oxetane-2-carbonyl)-5-azaspiro[2.4]heptan-7-yl)-1,1-difluoromethanesulfonamide]"
1 to 10 nM,90 to 100%,–,"CCS(=O)(=O)N[C@@H]1[C@H](Cc2cccc(-c3ccccc3)c2F)N(C(=O)[C@H]2CCO2)CC12CC2 [Compound 53, N-((6S,7S)-6-((2-fluoro-[1,1′-biphenyl]-3-yl)methyl)-5-((R)-oxetane-2-carbonyl)-5-azaspiro[2.4]heptan-7-yl)ethanesulfonamide]"
1 to 10 nM,90 to 100%,–,"O=C([C@H]1C[C@@H](F)C1)N1CC2(CC2)[C@H](NS(=O)(=O)C(F)F)[C@@H]1Cc1cccc(-c2ccccc2)c1F [Compound 201, 1,1-difluoro-N-((6S,7S)-6-((2-fluoro-[1,1′-biphenyl]-3-yl)methyl)-5-((1s,3s)-3-fluorocyclobutane-1-carbonyl)-5-azaspiro[2.4]heptan-7-yl)methanesulfonamide]"
0.0794 to 1 nM,90 to 100%,–,CCNC(=O)N1CC2(CC2)[C@H](NS(=O)(=O)N(C)C)[C@@H]1Cc1cccc(-c2ccccc2)c1F [Compound 121]
0.0794 to 1 nM,90 to 100%,–,"CS(=O)(=O)N[C@@H]1[C@H](Cc2cccc(-c3ccccc3)c2F)N(C(=O)NCC(F)F)CC12CC2 [Compound 112, (6S,7S)-N-(2,2-difluoroethyl)-6-((2-fluoro-[1,1′-biphenyl]-3-yl)methyl)-7-(methylsulfonamido)-5-azaspiro[2.4]heptane-5-carboxamide]"
10 to 100 nM,80 to 90%,–,"O=C([C@H]1CCO1)N1CC2(CC2)[C@H](NS(=O)(=O)C(F)(F)F)[C@@H]1Cc1cccc(-c2ccccc2)c1F [Compound 167, 1,1,1-trifluoro-N-((6S,7S)-6-((2-fluoro-[1,1′-biphenyl]-3-yl)methyl)-5-((R)-oxetane-2-carbonyl)-5-azaspiro[2.4]heptan-7-yl)methanesulfonamide]"
1 to 10 nM,90 to 100%,–,"O=C(NCC1(F)CC1)N1CC2(CC2)[C@H](NS(=O)(=O)C(F)F)[C@@H]1Cc1cc(F)cc(-c2ccccc2)c1F [Compound 417, (6S,7S)-6-(2,5-difluoro-[1,1′-biphenyl]-3-yl)methyl)-7-((difluoromethyl)sulfonamido)-N-((1-fluorocyclopropylmethyl)-5-azaspiro[2.4]heptane-5-carboxamide]"
10 to 100 nM,90 to 100%,–,"CS(=O)(=O)N[C@@H]1[C@H](Cc2cc(F)cc(-c3ccccc3F)c2F)N(C(=O)[C@H]2CCO2)CC12CC2 [Compound 350, N-((6S,7S)-5-((R)-oxetane-2-carbonyl)-6-((2,2′,5-trifluoro-[1,1′-biphenyl]-3-yl)methyl)-5-azaspiro[2.4]heptan-7-yl)methanesulfonamide]"
1 to 10 nM,90 to 100%,–,"O=C(NCC1(F)CC1)N1CC2(CC2)[C@H](NS(=O)(=O)C(F)F)[C@@H]1Cc1cccc(-c2cc(F)cc(F)c2)c1F [Compound 235, (6S,7S)-7-((difluoromethyl)sulfonamido)-N-((1-fluorocyclopropyl)methyl)-6-((2,3′,5′-trifluoro-[1,1′-biphenyl]-3-yl)methyl)-5-azaspiro[2.4]heptane-5-carboxamide]"
1 to 10 nM,90 to 100%,–,"[2H]c1c([2H])c([2H])c(-c2cccc(C[C@H]3[C@@H](NS(=O)(=O)CF)C4(CC4)CN3C(=O)[C@H]3CCO3)c2F)c([2H])c1[2H] [Compound 365, 1-fluoro-N-((6S,7S)-6-((2-fluoro-[1,1′-biphenyl]-3-yl-2′,3′,4′,5′,6′-d5)methyl)-5-((R)-oxetane-2-carbonyl)-5-azaspiro[2.4]heptan-7-yl)methanesulfonamide]"
10 to 100 nM,80 to 90%,–,"CC(C)(O)C(=O)N1CC2(CC2)[C@H](NS(C)(=O)=O)[C@@H]1Cc1cccc(-c2ccccc2F)c1F [Compound 361, N-((6S,7S)-6-((2,2'-difluoro-[1,1′-biphenyl]-3-yl)methyl)-5-(2-hydroxy-2-methylpropanoyl)-5-azaspiro[2.4]heptan-7-yl)methanesulfonamide]"
1 to 10 nM,90 to 100%,–,"CC(C#N)C(=O)N1CC2(CC2)[C@H](NS(C)(=O)=O)[C@@H]1Cc1cccc(-c2ccccc2)c1F (stereo partly drawn) [Compound 358, N-((6S,7S)-5-(2-cyanopropanoyl)-6-((2-fluoro-[1,1′-biphenyl]-3-yl)methyl)-5-azaspiro[2.4]heptan-7-yl)methanesulfonamide]"
1 to 10 nM,90 to 100%,–,"CS(=O)(=O)N[C@@H]1[C@H](Cc2cccc(-c3ccccc3)c2F)N(C(=O)NCC2(F)CC2)CC12CC2 [Compound 104, (6S,7S)-6-((2-fluoro-[1,1′-biphenyl]-3-yl)methyl)-N-((1-fluorocyclopropyl)methyl)-7-(methylsulfonamido)-5-azaspiro[2.4]heptane-5-carboxamide]"
10 to 100 nM,90 to 100%,–,"CS(=O)(=O)N[C@@H]1[C@H](Cc2cccc(-c3ccccc3)c2)N(C(=O)[C@H]2CCO2)CC12CC2 [Compound 55, N-((6S,7S)-6-([1,1′-biphenyl]-3-ylmethyl)-5-((R)-oxetane-2-carbonyl)-5-azaspiro[2.4]heptan-7-yl)methanesulfonamide]"
1 to 10 nM,90 to 100%,–,"CS(=O)(=O)N[C@@H]1[C@H](Cc2cc(F)cc(-c3ccccc3)c2F)N(C(=O)[C@H]2CCO2)CC12CC2 [Compound 59, N-((6S,7S)-6-((2,5-difluoro-[1,1′-biphenyl]-3-yl)methyl)-5-((R)-oxetane-2-carbonyl)-5-azaspiro[2.4]heptan-7-yl)methanesulfonamide]"
